Data set [1] is described as follows: in vitro comparative gelling experiment in 0.1N hydrochloric acid. In kind it is physicochemical.
For data set [2], the system named is Escherichia coli, A.T.T.C. accession number 8739. The data set can be described thus: in-vitro antimicrobial activity, zone of inhibition on agar plates. In kind it is cell-based. To be noted: agar plate well, incubated at 37° C. for 24 hours.

Like-named read-outs stand apart in the source and are kept apart here.

As to `O=C(O)c1ccccc1` [Example 10, Benzoic Acid], the gel formation result in data set [1] was “did not gel”.

As to `Cl` [Example 12, 0.1N Hydrochloric Acid], the gel formation entry in data set [1] is “gelled”.

Consider Sucralfate [Example 1], for which, in data set [1] (15ml of 0.1N hydrochloric acid), the “supernatant left after gelling” value was “essentially clear”. Also, the “gelled in (time to gel)” value in data set [1] (composition in 15ml of 0.1N hydrochloric acid, Vortex-Genie speed 3 for 10-15 seconds) is given as “about 10 seconds”.

As to Sucralfate [Example 7], the gel formation entry in data set [1] (sample preparation for the antimicrobial test: 15ml of 0.1N hydrochloric acid in sterile test tube) is “gelled”. Besides, the “ZONE OF INHIBITION(CM)” value in data set [2] is recorded as “Negative”.

Values taken from patent publication EP0403048A2, “Medicated compositions containing sucralfate and processes for their production” (WARNER-LAMBERT COMPANY, priority 1989, dated 1990).
